Measurements from patent US8926083B2, “Polymerizable ink composition, ink cartridge, and inkjet printer” (Ricoh Company, Ltd., priority 2012, dated 2015).
Like-named read-outs stand apart in the source and are kept apart here.

Legend:
[1] = Skin sensitization test according to Local Lymph Node Assay (LLNA) method, Stimulation Index (SI); settings: LLNA method (OECD test guideline 429), SI less than 3 = no skin sensitization problem
[2] = in vivo
[3] = statement of the material safety data sheet; cited from earlier work

For `C=CC(=O)OCC(CC)(COC(=O)C=C)COC(=O)C=C` [Trimethylol propane triacrylate (SR-350), Trimethylol propane triacrylate], which SI value [1] is on record?
Its SI value is 1.9):.

For “Polypropylene glycol (n = 9) dimethacrylate”, which SI value [2] is on record?
The SI value was 1.3):.

For `C=CC(=O)OCC(CC)(COC(=O)C=C)COC(=O)C=C` [Trimethylol propane triacrylate (M-309), Trimethylol propane triacrylate], which “skin sensitization as mentioned in MSDS” value [3] is on record?
Its value is “Toagosei Company, Limited, skin sensitization causing”.

For `C=C(C)C(=O)OCCCCOC(=O)C(=C)C` [1,4-butane diol dimethacrylate], which SI value [1] is on record?
The SI value was 2.6):.

Which SI value [1] does the source give for “Diacrylate of caprolactone-modified hydroxy pivalic acid neopentyl glyco” here?
The SI value was “manufactured by Nippon Kayaku Co., Ltd., SI Value = 0.9):”.
